Data: publication PMC5823406, “Vehicle development, pharmacokinetics and toxicity of the anti-invasive agent 4-fluoro-3’,4’,5’-trimethoxychalcone in rodents” (PLoS ONE, 2018)
Where “and” joins values, the source holds several entries; their conditions need not be identical. Identical values can stand only once. Like-named read-outs stand apart in the source and are kept apart here.

Experiments:
[1] = tested on: ICR mice; test: Single-dose IP MTD study; type: in vivo; conditions: for Necropsy: gross findings: 24 h post dosing; for Weigt decrease (%): over 24 h
Protocol: Male ICR mice (20–26 g), were obtained from BioLASCO Taiwan. Animals were kept in conventional cages with wood chip bedding. Space allocation for 3–5 animals was 30 x 19 x 13 cm. All animals were healthy at the start of the trial and maintained in a well-controlled temperature (20–24°C) and humidity (30%-70%) environment with 12 h light/dark cycles. Free access to a standard lab diet [MFG (Oriental Yeast Co., Ltd., Japan)] and autoclaved tap water were granted.
A single PO and IP dose progression test was conducted in which animals were dosed at a minimum of 72- or 24-h intervals, respectively. C16 (vehicle: 10% Solutol HS-15 / 90% PEG 600) was administered by oral gavage at 10 mL/kg to randomly assigned groups of 2 male and 2 female mice, or by IP injection at 5 mL/kg to randomly assigned groups of 5 male mice. Animals received an initial dose of 10 mg/kg. If 50% of the animals survived for 72 h (PO) or 30 min (IP), the dose for the next cohort was increased. If one or more animals died, the dose for the next cohort was decreased. The next dose level was determined by the decision scheme in Fig 2.
Body weights were recorded before dosing and at the 72- (PO) or 24-h (IP) time point. Gross necropsy was performed in all animals without tissue collection.
C16 was administered IP at an initial dose of 10 mg/kg to a group of 5 ICR derived male mice weighing 22±2 g. The animals were then observed for presence of acute toxic symptoms and autonomic effects during the first 30 min and after 1 h, 2 h, 6 h and 24 h (Table S-Table U). The next dose level was determined based on whether more than 50% animals died within 30 min after dosing. Gross necropsy was performed in all animals without tissue collection .
Table S. Body weights, evolution over 24 h, IP MTD study.
Compound Dose Animal Body weight (g)
Table T. Food consumption over 24 h, IP MTD study.
Compound Dose Animal Food consumption (g)

[2] = High-dose PK, single PO 300 mg/kg via oral gavage; type: in vivo; conditions: single 300 mg/kg oral gavage; for Individual whole blood concentration: animals 4-1 to 4-3
Protocol: On the morning of day 7, the water group received a single PO administration of 300 mg/kg C16 (10 mL/kg) for high-dose PK evaluation, using a 30 mg/mL solution of C16 in 10% Solutol HS-15 / 90% PEG 600 (prepared as described above). To that extent, blood was collected via the tail vein at the 30 and 60 min time point, and via cardiac exsanguination after 180 min (protocol as for other cohorts). Samples for hematological and biochemical analysis were also prepared. Afterward, animals were sacrificed by cervical dislocation.
Blood samples (25 μL) were collected via the tail vein or cardiac puncture (last time point). Blood was pipetted into a tube with 25 μL heparinized water (1 μL of sodium heparin (1000 units/mL) + 24 μL water) within 30 seconds of collection. The sample was pipetted up and down five times, immediately frozen on dry ice, and stored at -60°C to -80°C until analysis.
E.C. Whole blood C16 levels […]
BLOQ: below the limit of quantitation (0.5 ng/mL). Samples that were below the limit of quantification were not used in the calculation of
Table BB. […]

In the case of `COc1cc(C(=O)/C=C/c2ccc(F)cc2)cc(OC)c1OC` [C16, 4-fluoro-3’,4’,5’-trimethoxychalcone], the Deaths ([1]; IP 10 mg/kg) is reported as 0/5, the “Necropsy: gross findings” value ([1]; IP 10 mg/kg) is reported as “none” and the “Autonomic: Hunch back” value ([1]; IP 10 mg/kg, first 30 min) is reported as 3/5. For the same molecule, the “Autonomic: Low body temperature” value ([1]; IP 10 mg/kg, first 30 min) was 0/5, the “Behavioral: Irritability: vocalization” value ([1]; IP 10 mg/kg, first 30 min) was 0/5 and the “Behavioral: Pinna” value ([1]; IP 10 mg/kg, first 30 min) was 0/5. The “Neurologic: Low limb post” value ([1]; IP 10 mg/kg, first 30 min) was 0/5, the “Neurologic: Tremor: twitches” value ([1]; IP 10 mg/kg, first 30 min) was 2/5 and the “Weigt decrease (%)” value ([1]; IP 10 mg/kg) was 2.4%. For the same molecule, the Deaths ([1]; IP 30 mg/kg) was 0/5, the “Necropsy: gross findings” value ([1]; IP 30 mg/kg) was “none” and the “Autonomic: Hunch back” value ([1]; IP 30 mg/kg, first 30 min) was 5/5. The “Autonomic: Low body temperature” value ([1]; IP 30 mg/kg, first 30 min) was 0/5, the “Neurologic: Tremor: twitches” value ([1]; IP 30 mg/kg, first 30 min) was 2/5 and the “Weigt decrease (%)” value ([1]; IP 30 mg/kg) was 4.8%. For the same molecule, the Deaths ([1]; IP 50 mg/kg) was 0/5, the “Necropsy: gross findings” value ([1]; IP 50 mg/kg) was “none” and the “Autonomic: Hunch back” value ([1]; IP 50 mg/kg, first 30 min) was 5/5. For the same molecule, the “Neurologic: Tremor: twitches” value ([1]; IP 50 mg/kg, first 30 min) was 3/5, the “Weigt decrease (%)” value ([1]; IP 50 mg/kg) was 8.7% and the “tolerated dose, single-dose IP administration” value ([1]; male, ICR, mouse, in vivo, ip, 24 h) was “up to 50 mg/kg”. The concentration at 0.5 h ([2]; male, CD-1, mouse, whole blood, po, 0.5 h, Average±SD) was 32.3 ± 24.2 ng/mL, the concentration at 1 h ([2]; male, CD-1, mouse, whole blood, po, 1 h, Average±SD) was 28.3 ± 12.1 ng/mL and the concentration at 3 h ([2]; male, CD-1, mouse, whole blood, po, 3 h, Average±SD, read-out: Whole blood concentration) was 15.1 ± 2.9 ng/mL. The “Individual whole blood concentration” value ([2]; mouse, 0.5 h) was 19.3 ng/mL and 60.2 ng/mL and 17.5 ng/mL, the “Individual whole blood concentration” value ([2]; mouse, 1 h) was 28.5 ng/mL and 40.3 ng/mL and 16.2 ng/mL and the “Individual whole blood concentration” value ([2]; mouse, 3 h) was 13.9 ng/mL and 13.1 ng/mL. It also gave a concentration at 3 h ([2]; mouse, whole blood, po, 3 h, animals 4-1 to 4-3, read-out: Individual whole blood concentration) of 18.4 ng/mL.
